The compounds below were run against T1, hTSHR (Homo sapiens, UniProt P16473) (assay: hTSHR TR-FRET cAMP Assay (inhibition of M22-stimulated cAMP production)). Settings: Expi293F Inducible cells stably expressing hTSHR; cAMP HTRF; stimulated with EC80 of anti-TSHR antibody M22; 15 min compound preincubation, 30 min at 37° C.; read-out: Activity (IC50 bins).
T1 construct: expressed in transfected cells
Format: cell-based
In short: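 Readout was a cAMP HTRF ratio of 655/620 nm after lysis, scaled between the EC80 M22 signal (0% inhibition) and no-agonist vehicle (100%). Frozen induced Expi293F-hTSHR cells saw test compounds (0.5% DMSO) for 15 min at 37 °C before 30 min of M22 stimulation at EC80.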

T1 sequence (P16473 21-764): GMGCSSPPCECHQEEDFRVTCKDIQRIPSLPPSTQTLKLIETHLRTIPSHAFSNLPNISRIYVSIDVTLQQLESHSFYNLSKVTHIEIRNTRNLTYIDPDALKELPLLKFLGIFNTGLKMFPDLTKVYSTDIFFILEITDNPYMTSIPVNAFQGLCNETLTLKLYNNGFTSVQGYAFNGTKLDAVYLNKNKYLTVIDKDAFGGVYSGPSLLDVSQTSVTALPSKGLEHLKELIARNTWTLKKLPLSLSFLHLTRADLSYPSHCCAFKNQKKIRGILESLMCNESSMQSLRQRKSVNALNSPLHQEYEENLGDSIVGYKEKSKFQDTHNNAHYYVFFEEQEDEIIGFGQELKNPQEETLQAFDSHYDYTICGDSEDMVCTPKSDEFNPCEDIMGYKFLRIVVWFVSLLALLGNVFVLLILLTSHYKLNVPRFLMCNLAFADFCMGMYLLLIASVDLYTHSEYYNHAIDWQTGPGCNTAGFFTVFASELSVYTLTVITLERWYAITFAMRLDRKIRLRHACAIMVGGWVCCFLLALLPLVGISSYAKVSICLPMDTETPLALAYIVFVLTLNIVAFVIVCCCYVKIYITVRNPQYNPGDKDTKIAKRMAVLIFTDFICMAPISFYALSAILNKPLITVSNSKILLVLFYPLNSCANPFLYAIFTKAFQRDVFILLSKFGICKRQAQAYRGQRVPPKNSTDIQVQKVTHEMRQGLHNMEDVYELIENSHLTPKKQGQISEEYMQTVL

IC50	Compound
> 1000 nM	C[C@H](c1ccccc1)N1C(=O)[C@@H](C)Oc2cc(NC(=O)NC(C)(C)C)ccc21 [Example 331, 1-(tert-butyl)-3-((R)-2-methyl-3-oxo-4-((R)-1-phenylethyl)-3,4-dihydro-2H-benzo[b][1,4]oxazin-7-yl)urea]
100 to 1000 nM	Cc1cc2c(cc1NC(=O)NC(C)(C)C)O[C@H](C)C(=O)N2Cc1ccccc1 [Example 332, (R)-1-(4-benzyl-2,6-dimethyl-3-oxo-3,4-dihydro-2H-benzo[b][1,4]oxazin-7-yl)-3-(tert-butyl)urea]
< 100 nM	C[C@H]1Oc2c(cc(F)c(NC(=O)NC(C)(C)C)c2F)N(Cc2cccc(OC(F)F)c2)C1=O [Example 335, 3-tert-butyl-1-[(2R)-4-{[3-(difluoromethoxy)phenyl]methyl}-6,8-difluoro-2-methyl-3-oxo-2H-1,4-benzoxazin-7-yl]urea]
< 100 nM	C[C@H]1Oc2c(cc(F)c(NC(=O)NC(C)(C)C)c2F)N(Cc2cccc(C(F)F)c2)C1=O [Example 336, (R)-1-(tert-butyl)-3-(4-(3-(difluoromethyl)benzyl)-6,8-difluoro-2-methyl-3-oxo-3,4-dihydro-2H-benzo[b][1,4]oxazin-7-yl)urea]
100 to 1000 nM	CC(c1cc(C(F)(F)F)ccn1)n1c(=O)cnc2cc(NC(=O)NC3(C)CCC3)ccc21 (stereo not drawn) [Example 337, 1-(1-methylcyclobutyl)-3-(2-oxo-1-(1-(4-(trifluoromethyl)pyridin-2-yl)ethyl)-1,2-dihydroquinoxalin-6-yl)urea]
100 to 1000 nM	C[C@H]1Oc2cc(NC(=O)NC(C)(C)C)c(F)cc2N(Cc2cccc(OC(F)F)c2)C1=O [Example 338, (R)-1-(tert-butyl)-3-(4-(3-(difluoromethoxy)benzyl)-6-fluoro-2-methyl-3-oxo-3,4-dihydro-2H-benzo[b][1,4]oxazin-7-yl)urea]
100 to 1000 nM	C[C@@H](c1cccc(OC(F)(F)F)c1)n1c(=O)cnc2cc(NC(=O)NC(C)(C)C)c(F)cc21 [Example 339, (S)-1-(tert-butyl)-3-(7-fluoro-2-oxo-1-(1-(3-(trifluoromethoxy)phenyl)ethyl)-1,2-dihydroquinoxalin-6-yl)urea]
100 to 1000 nM	C[C@H]1Oc2cc(NC(=O)NC(C)(C)C)c(F)c(F)c2N(Cc2cccc(C(F)F)c2)C1=O [Example 340, (R)-1-(tert-butyl)-3-(4-(3-(difluoromethyl)benzyl)-5,6-difluoro-2-methyl-3-oxo-3,4-dihydro-2H-benzo[b][1,4]oxazin-7-yl)urea]
100 to 1000 nM	C[C@H]1Oc2cc(NC(=O)NC(C)(C)C)c(C#N)cc2N(Cc2ccccc2)C1=O [Example 341, (R)-1-(4-benzyl-6-cyano-2-methyl-3-oxo-3,4-dihydro-2H-benzo[b][1,4]oxazin-7-yl)-3-(tert-butyl)urea]
< 100 nM	C[C@H]1Oc2cc(NC(=O)NC(C)(C)C)c(C#N)cc2N(Cc2cccc(C(F)F)c2)C1=O [Example 342, (R)-1-(tert-butyl)-3-(6-cyano-4-(3-(difluoromethyl)benzyl)-2-methyl-3-oxo-3,4-dihydro-2H-benzo[b][1,4]oxazin-7-yl)urea]
< 100 nM	C[C@@H](c1ccccc1)N1C(=O)CCc2cc(NC(=O)NC(C)(C)C)c(C(F)(F)F)cc21 [Example 343, (S)-1-(tert-butyl)-3-(2-oxo-1-(1-phenylethyl)-7-(trifluoromethyl)-1,2,3,4-tetrahydroquinolin-6-yl) urea]
100 to 1000 nM	C[C@@H](c1ccccc1)n1c(=O)cnc2cc(NC(=O)NC(C)(C)C)c(Cl)cc21 [Example 344, (S)-1-(tert-butyl)-3-(7-chloro-2-oxo-1-(1-phenylethyl)-1,2-dihydroquinoxalin-6-yl)urea]
100 to 1000 nM	CC(C)(C)NC(=O)Nc1c(F)cc2c(c1F)CCC(=O)N2Cc1ccccc1 [Example 345, 1-(1-benzyl-5,7-difluoro-2-oxo-1,2,3,4-tetrahydroquinolin-6-yl)-3-(tert-butyl) urea]
100 to 1000 nM	C[C@@H](c1ccccc1)n1c(=O)cnc2cc(NC(=O)NC(C)(C)C)c(C(F)(F)F)cc21 [Example 346, 3-tert-butyl-1-{2-oxo-1-[(1S)-1-phenylethyl]-7-(trifluoromethyl)quinoxalin-6-yl}urea]
100 to 1000 nM	Cc1cc2c(cc1NC(=O)NC(C)(C)C)ncc(=O)n2[C@@H](C)c1ccccc1 [Example 347, 3-tert-butyl-1-{7-methyl-2-oxo-1-[(1S)-1-phenylethyl]quinoxalin-6-yl}urea]
100 to 1000 nM	C[C@@H](c1ccccc1)n1c(=O)cnc2cc(NC(=O)NC(C)(C)C)c(C3CC3)cc21 [Example 348, 3-tert-butyl-1-{7-cyclopropyl-2-oxo-1-[(1S)-1-phenylethyl]quinoxalin-6-yl}urea]
< 100 nM	C[C@H]1Oc2cc(NC(=O)NC(C)(C)C)c(C(F)(F)F)cc2N([C@@H](C)c2ccccc2)C1=O [Example 349, 1-(tert-butyl)-3-((R)-2-methyl-3-oxo-4-((S)-1-phenylethyl)-6-(trifluoromethyl)-3,4-dihydro-2H-benzo[b][1,4]oxazin-7-yl)urea]

IC50	Compound
> 1000 nM	C[C@@H](c1cccc(OC(F)(F)F)c1)n1c(=O)cnc2c(CO)c(NC(=O)NC(C)(C)C)ccc21 [Example 351, (S)-1-(tert-butyl)-3-(5-(hydroxymethyl)-2-oxo-1-(1-(3-(trifluoromethoxy)phenyl)ethyl)-1,2-dihydroquinoxalin-6-yl)urea]
100 to 1000 nM	C[C@@H](c1cccc(OC(F)(F)F)c1)n1c(=O)cnc2cc(NC(=O)NC(C)(C)C)c(C#N)cc21 [Example 352, 3-tert-butyl-1-{7-cyano-2-oxo-1-[(1S)-1-[3-(trifluoromethoxy)phenyl]ethyl]quinoxalin-6-yl}urea]
100 to 1000 nM	C[C@@H](c1cccc(OC(F)(F)F)c1)n1c(=O)cnc2c(F)c(NC(=O)NC(C)(C)C)ccc21 [Example 353, 3-tert-butyl-1-{5-fluoro-2-oxo-1-[(1S)-1-[3-(trifluoromethoxy)phenyl]ethyl]quinoxalin-6-yl}urea]
100 to 1000 nM	C[C@H]1Oc2c(cc(C(F)(F)F)c(NC(=O)NC(C)(C)C)c2F)N(Cc2ccccc2)C1=O [Example 354, (R)-1-(4-benzyl-8-fluoro-2-methyl-3-oxo-6-(trifluoromethyl)-3,4-dihydro-2H-benzo[b][1,4]oxazin-7-yl)-3-(tert-butyl)urea]
100 to 1000 nM	C[C@H]1Oc2nc(NC(=O)NC(C)(C)C)c(Cl)cc2N(Cc2ccccc2)C1=O [Example 355, 1-[(3R)-1-benzyl-7-chloro-3-methyl-2-oxo-3H-pyrido[2,3-b][1,4]oxazin-6-yl]-3-tert-butylurea]
100 to 1000 nM	C[C@H]1Oc2c(cc(C(F)(F)F)c(NC(=O)NC(C)(C)C)c2F)N(Cc2cccc(C(F)F)c2)C1=O [Example 356, (R)-1-(tert-butyl)-3-(4-(3-(difluoromethyl)benzyl)-8-fluoro-2-methyl-3-oxo-6-(trifluoromethyl)-3,4-dihydro-2H-benzo[b][1,4]oxazin-7-yl)urea]
100 to 1000 nM	C[C@@H](c1cccc(Cl)c1)n1c(=O)cnc2cc(NC(=O)NC(C)(C)C)c(F)cc21 [Example 357, (S)-1-(tert-butyl)-3-(1-(1-(3-chlorophenyl)ethyl)-7-fluoro-2-oxo-1,2-dihydroquinoxalin-6-yl) Urea]
100 to 1000 nM	C[C@@H](c1cccc(Cl)c1)n1c(=O)cnc2cc(NC(=O)NC(C)(C)C)c(C(F)(F)F)cc21 [Example 358, 3-tert-butyl-1-{1-[(1S)-1-(3-chlorophenyl)ethyl]-2-oxo-7-(trifluoromethyl)quinoxalin-6-yl}urea]
< 100 nM	C[C@@H](c1cccc(OC(F)(F)F)c1)n1c(=O)cnc2cc(NC(=O)OC3CCCC3)ccc21 [Example 359, cyclopentyl (S)-(2-oxo-1-(1-(3-(trifluoromethoxy)phenyl)ethyl)-1,2-dihydroquinoxalin-6-yl)carbamate]
> 1000 nM	C[C@@H](c1ccccc1)n1c(=O)cnc2cc(NC(=O)NC(C)(C)C)c(CO)cc21 [Example 360, (S)-1-(tert-butyl)-3-(7-(hydroxymethyl)-2-oxo-1-(1-phenylethyl)-1,2-dihydroquinoxalin-6-yl)urea]
100 to 1000 nM	C[C@@H](c1cccc(Cl)c1)n1c(=O)cnc2cc(NC(=O)NC(C)(C)C)c(C#N)cc21 [Example 361, 3-tert-butyl-1-{1-[(1S)-1-(3-chlorophenyl)ethyl]-7-cyano-2-oxoquinoxalin-6-yl}urea]
100 to 1000 nM	C[C@H]1Oc2nc(NC(=O)NC(C)(C)C)c(C#N)cc2N(Cc2ccccc2)C1=O [Example 362, 1-[(3R)-1-benzyl-7-cyano-3-methyl-2-oxo-3H-pyrido[2,3-b][1,4]oxazin-6-yl]-3-tert-butylurea]
100 to 1000 nM	C[C@@H](c1cc(Cl)ccc1Cl)n1c(=O)cnc2cc(NC(=O)NC(C)(C)C)c(C#N)cc21 [Example 363, (S)-1-(tert-butyl)-3-(7-cyano-1-(1-(2,5-dichlorophenyl)ethyl)-2-oxo-1,2-dihydroquinoxalin-6-yl) urea]
100 to 1000 nM	C[C@@H](c1cc(Cl)ccc1F)n1c(=O)cnc2cc(NC(=O)NC(C)(C)C)c(C#N)cc21 [Example 364, 3-tert-butyl-1-{1-[(1S)-1-(5-chloro-2-fluorophenyl)ethyl]-7-cyano-2-oxoquinoxalin-6-yl}urea]
< 100 nM	C[C@@H](c1cc(Cl)ccc1Cl)n1c(=O)cnc2cc(NC(=O)NC(C)(C)C)c(Cl)cc21 [Example 365, (S)-1-(tert-butyl)-3-(7-chloro-1-(1-(2,5-dichlorophenyl)ethyl)-2-oxo-1,2-dihydroquinoxalin-6-yl)urea]
< 100 nM	C[C@H]1Oc2cc(NC(=O)NC(C)(C)C)c(C#N)cc2N([C@@H](C)c2ccccc2)C1=O [Example 366, 1-(tert-butyl)-3-((R)-6-cyano-2-methyl-3-oxo-4-((S)-1-phenylethyl)-3,4-dihydro-2H-benzo[b][1,4]oxazin-7-yl)urea]
